Experiments:
GST-free Syk(6-370) = target: T1, GST-free Syk(6-370) (Homo sapiens, UniProt P43405); assay: Thermal denaturation assay (SYPRO orange); type: binding; conditions: Syk(6-370) 2 µM, dose-dependent
T1 construct: Syk 6-370 (GST tag removed by thrombin cleavage) was used; GST (N, cleaved yes); made in house; host or cells: E. coli BL21(DE3)
Experimental: In this assay, Syk 6-370 (GST tag removed by thrombin cleavage) was used. Thrombin (GE Healthcare cat#270846, reconstituted in PBS to 1 unit/ul) was applied to the GST-Syk 6-370 protein bound to the Glutathione Sepharose beads. The GST-tag was cleaved with 20 unit/1 ml of protein-GST beads in PBS overnight at room temperature. After chromatography and additional cleaning on GST-beads, the purified protein was verified by SDS-PAGE. For thermal denaturation experiments, GST-free Syk(6-370) was used at a final concentration of 2 µM and SYPRO orange (Thermo Scientific, cat# S6650) at a 0.08% (v/v) dilution (from a 5000x stock). Compounds were used at indicated concentrations. Numerous reaction buffers were initially screened, and a final buffer containing 25 mM HEPES (pH 7.5) with 100 mM NaCl was used. Assays were performed in 20 µl volumes, in triplicate, in 384-well plates (Applied Biosystems MicroAmp 384-well clear optical reaction plate, catalogue #4483285). Plates were sealed with Applied Biosystems Optical Adhesive Cover (cat#4360954) and centrifuged for 2 min at 800 × g at room temperature. Thermal denaturation was measured on a Quant Studio 6 Flex Real-time PCR system (Applied Biosystems). […]

THP-1 cells = assay: THP-1 cell adhesion to CS-1; type: cell-based, human; conditions: cells loaded by glycerol shock
Experimental: Supplemental Figure 6. Effects of ceftazidime on THP-1 adhesion to CS-1. Cells were loaded with ceftazidime by glycerol shock. After loading, cells were washed with media and loaded with calcein-AM. CS-1–conjugated bovine serum albumin was immobilized in 96-well plates (5 ug/ml), and adhesion assays were performed as previously described (1). Data are expressed as average fluorescence ± standard deviation from triplicates. One of two representative experiments is shown. The green line represents cell adhesion in the absence of ceftazidime.

[1] = target: T2, integrin β1A cytoplasmic domain : GST-Syk(6-370) (Homo sapiens, UniProt P43405); assay: AlphaScreen of integrin β1A cytoplasmic domain binding to Syk; conditions: read-out: antagonist activity against β1 (value without measure name), AlphaScreen
T2 construct: made in house; host or cells: E. coli BL21(DE3)
Experimental: The following HTS assay was developed to identify antagonists of the interaction between the integrin β3 cytoplasmic domain and the non-receptor tyrosine kinase Syk. […] ( Figure 1E ). Background signals in this assay were determined by omitting the integrin β3 peptide. Specific assay conditions are described in Table 1 . […] Then, either dimethyl sulfoxide control or compound was added, followed by biotinylated β3 peptide, and avidin-coated AlphaScreen donor beads. After a 4-h incubation period at room temperature (while protected from light), assays plates were read on an Infinite M1000 (Tecan) multiplate reader (Ex. 680/30; Em. 570/100).
Figure 4 Ceftazidime inhibition of integrin signaling. (A) Dose-response curves comparing ceftazidime antagonist activity against integrin β1A, β2, and β3 cytoplasmic domains binding to Syk as measured in AlphaScreen assays. […] Data are expressed as mean fluorescence (Fl520) ± the range from duplicate determinations. One of three experiments is shown. (B) Flow cytometric analysis of integrin α4β1, β2 subunit, αVβ3, and FcγRI (CD64) on THP-1 cells. Isotype control staining is shown as light gray histograms. Specific integrin staining is shown as darker gray histograms. […] One representative blot is shown (top), along with quantification of three separate experiments normalized to maximum Syk phosphorylation (bottom). Results are expressed as the mean ± SEM.

- effect on melting temperature (Tm) of Syk(6-370) (GST-free Syk(6-370)): decreased
- IC50 [1]: 1620 ± 410 nM
SMILES: CC(C)(O/N=C(\C(=O)N[C@@H]1C(=O)N2C(C(=O)[O-])=C(C[n+]3ccccc3)CS[C@H]12)c1csc(N)n1)C(=O)O [ceftazidime]
- effect on THP-1 cell adhesion to CS-1 (THP-1 cells): not due to ceftazidime inhibition of THP-1 cell adhesion to CS-1
